# Source: patent US20080207614A1, “QUINAZOLINE DERIVATIVES FOR THE TREATMENT AND PREVENTION OF DIABETES AND OBESITY” (SK CHEMICALS CO., LTD., priority 2004, published 2008)
# Key:
# C2C12 muscle cells = experiment: Analysis of glucose absorption (2-deoxyglucose) in differentiated C2C12 muscle cells; format: cell-based; conditions: test materials 10 μM, times relative to control group
# How it was run: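 Differentiated C2C12 myotubes (6 days in 1% serum) held 3 h in KRB with 5 mM glucose, then given test material at 10 μM. After 30 min, 0.2 μCi 2-deoxyglucose added for 20 min; uptake measured by radioactive counting of NaOH lysates.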
# AMPK = experiment: Measurement of AMPK activity by Western blot in C2C12 cells; format: cell-based; design: key to AMPK activity (degree of phosphorylation of serine-79 and threonine-172): fold increase in threonine-172 phosphorylation; AMPK activity (degree of phosphorylation of serine-79): unit not given here; conditions: 10 μM for 50 minutes; for AMPK activity (degree of phosphorylation of serine-79): footnote a: Western blot of serine-79 phosphorylation; for AMPK activity (degree of phosphorylation of serine-79 and threonine-172): no superscript: Western blot of serine-79 and threonine-172 phosphorylation
# Procedure: C2C12 cells were cultured and differentiated in the same manner as in Experimental Example 1. Treatment with the test materials was also performed in the same manner as in Experimental Example 1 (10 μM for 50 minutes). The culture medium was removed and the cells were washed for 2 times with PBS and protein extracts were obtained using a lysis buffer (50 mM tris-HCl, pH 7.4, 1% NP-40, 0.25% sodium deoxycholate, 150 mM NaCl, 1 mM EDTA, 1 mM PMSF, 1 mM sodium o-vanadate, 1 mM NaF, 1 μg/mL apronitin, 1 μg/mL leu-peptin, 1 μg/mL pepstatin). The AMPK activity was determined from Western blot analysis of the degree of phosphorylation of serine-79 […] acetyl CoA carboxylase and the degree of phosphorylation of threonine-172. The amount of ERK (extracellular signal regulated protein kinase) was confirmed by Western blot in order to quantify the proteins.
# The result of Western blot analysis is given in Table 3 below, wherein “strong” means that the degree of phosphorylation of threonine-172 increased by 3 times or more, “mild” means that the degree of phosphorylation of threonine-172 increased by 1 to 3 times and “weak” means that the degree of phosphorylation of threonine-172 increased by less than 1 time.
smiles,measurement,setting,value
"OCCOCCNc1nc(-c2ccccc2)nc2ccccc12 [Compound 1, 2-[2-(2-Phenylquinazolino-4-ylamino)-ethoxy]-ethanol]",Glucose absorption,C2C12 muscle cells,1.7
same,AMPK activity (degree of phosphorylation of serine-79),AMPK,6.0^a
"CC(C)Nc1nc(C(Cl)(Cl)Cl)nc2ccccc12 [Compound 2, Isopropyl-(2-trichloromethylquinazolino-4-yl)-amine]",Glucose absorption,C2C12 muscle cells,1.3
same,AMPK activity (degree of phosphorylation of serine-79),AMPK,4.2^a
"ClC(Cl)(Cl)c1nc(NC2CC2)c2ccccc2n1 [Compound 3, Cyclopropyl-(2-trichloromethylquinazolino-4-yl)-amine]",Glucose absorption,C2C12 muscle cells,1.2
same,AMPK activity (degree of phosphorylation of serine-79),AMPK,3.3^a
"ClC(Cl)(Cl)c1nc(NCCN2CCCCC2)c2ccccc2n1 [Compound 4, (2-Piperidino-1-ylethyl)-(2-trichloromethylquinazolino-4-yl)-amine]",Glucose absorption,C2C12 muscle cells,1.2
same,AMPK activity (degree of phosphorylation of serine-79),AMPK,3.5^a
"CC(Nc1nc(C(Cl)(Cl)Cl)nc2ccccc12)c1ccccc1 (stereo not drawn) [Compound 5, (1-Phenylethyl)-(2-trichloromethylquinazolino-4-yl)-amine]",Glucose absorption,C2C12 muscle cells,0.9
same,AMPK activity (degree of phosphorylation of serine-79),AMPK,4.7^a
"ClC(Cl)(Cl)c1nc(NCCCCc2ccccc2)c2ccccc2n1 [Compound 6, (4-Phenylbutyl)-(2-trichloromethylquinazolino-4-yl)-amine]",Glucose absorption,C2C12 muscle cells,1.4
same,AMPK activity (degree of phosphorylation of serine-79),AMPK,4.7^a
"CCCNc1nc(C(Cl)(Cl)Cl)nc2ccccc12 [Compound 7, Propyl-(2-trichloromethylquinazolino-4-yl)-amine]",Glucose absorption,C2C12 muscle cells,1.5
same,AMPK activity (degree of phosphorylation of serine-79),AMPK,4.4^a
"CCSc1nc(NC(C)C)c2ccccc2n1 [Compound 8, (2-Ethylsulfanylquinazolino-4-yl)-isopropylamine]",Glucose absorption,C2C12 muscle cells,1.2
same,AMPK activity (degree of phosphorylation of serine-79),AMPK,3.0^a
"CCSc1nc(NCc2cccc(F)c2)c2ccccc2n1 [Compound 9, (2-Ethylsulfanylquinazolino-4-yl)-(3-fluorobenzyl)-amine]",Glucose absorption,C2C12 muscle cells,2.0
same,AMPK activity (degree of phosphorylation of serine-79),AMPK,5.5^a
"CCSc1nc(NCCc2cccc(F)c2)c2ccccc2n1 [Compound 10, (2-Ethylsulfanylquinazolino-4-yl)-[2-(3-fluorophenyl)-ethyl]-amine]",Glucose absorption,C2C12 muscle cells,1.5
same,AMPK activity (degree of phosphorylation of serine-79),AMPK,5.3^a
"CCOc1nc(NCc2ccc3c(c2)OCO3)c2ccccc2n1 [Compound 320, Benzo[1,3]dioxol-5-ylmethyl-(2-ethoxyquinazolino-4-yl)-amine]",AMPK activity (degree of phosphorylation of serine-79 and threonine-172),AMPK,0.9
"COc1cccc(CNc2nc(-c3ccco3)nc3ccccc23)c1OC [Compound 342, (2,3-Dimethoxybenzyl)-(2-furano-2-ylquinazolino-4-yl)-amine]",AMPK activity (degree of phosphorylation of serine-79 and threonine-172),AMPK,1.0
"COc1ccc(CNc2nc(-c3ccco3)nc3ccccc23)cc1OC [Compound 344, (3,4-Dimethoxybenzyl)-(2-furano-2-ylquinazolino-4-yl)-amine]",AMPK activity (degree of phosphorylation of serine-79 and threonine-172),AMPK,0.4
"COc1ccc(CNc2nc(-c3ccco3)nc3ccccc23)c(OC)c1 [Compound 346, (2,4-Dimethoxybenzyl)-(2-furano-2-ylquinazolino-4-yl)-amine]",AMPK activity (degree of phosphorylation of serine-79 and threonine-172),AMPK,0.8
"COc1ccc(OC)c(CNc2nc(-c3ccco3)nc3ccccc23)c1 [Compound 347, (2,5-Dimethoxybenzyl)-(2-furano-2-ylquinazolino-4-yl)-amine]",AMPK activity (degree of phosphorylation of serine-79 and threonine-172),AMPK,1.2
"COc1cc(OC)c(CNc2nc(-c3ccco3)nc3ccccc23)c(OC)c1 [Compound 348, (2-Furano-2-ylquinazolino-4-yl)-(2,4,6-trimethoxybenzyl)-amine]",AMPK activity (degree of phosphorylation of serine-79 and threonine-172),AMPK,1.6
"COc1ccccc1CNc1nc(-c2cccs2)nc2ccccc12 [Compound 349, (2-Methoxybenzyl)-(2-thiopenyl-2-ylquinazolino-4-yl)-amine]",AMPK activity (degree of phosphorylation of serine-79 and threonine-172),AMPK,2.1
"COc1cccc(CNc2nc(-c3cccs3)nc3ccccc23)c1 [Compound 350, (3-Methoxybenzyl)-(2-thiopenyl-2-ylquinazolino-4-yl)-amine]",AMPK activity (degree of phosphorylation of serine-79 and threonine-172),AMPK,0.6
"COc1ccc(CNc2nc(-c3cccs3)nc3ccccc23)cc1 [Compound 351, (4-Methoxybenzyl)-(2-thiopenyl-2-ylquinazolino-4-yl)-amine]",AMPK activity (degree of phosphorylation of serine-79 and threonine-172),AMPK,0.7
"c1csc(-c2nc(NCc3ccc4c(c3)OCO4)c3ccccc3n2)c1 [Compound 352, Benzo[1,3]dioxol-5-ylmethyl-(2-thiopenyl-2-ylquinazolino-4-yl)-amine]",AMPK activity (degree of phosphorylation of serine-79 and threonine-172),AMPK,0.5
"COc1cc(CNc2nc(-c3cccs3)nc3ccccc23)cc(OC)c1 [Compound 354, (3,5-Dimethoxybenzyl)-(2-thiopenyl-2-ylquinazolino-4-yl)-amine]",AMPK activity (degree of phosphorylation of serine-79 and threonine-172),AMPK,0.6
"COc1cc(CNc2nc(-c3cccs3)nc3ccccc23)cc(OC)c1OC [Compound 356, (2-Thiopenyl-2-ylquinazolino-4-yl)-(3,4,5-trimethoxybenzyl)-amine]",AMPK activity (degree of phosphorylation of serine-79 and threonine-172),AMPK,1.4
"COc1ccc(CNc2nc(-c3cccs3)nc3ccccc23)c(OC)c1 [Compound 357, (2,4-Dimethoxybenzyl)-(2-thiopenyl-2-ylquinazolino-4-yl)-amine]",AMPK activity (degree of phosphorylation of serine-79 and threonine-172),AMPK,0.7
"COc1ccc(OC)c(CNc2nc(-c3cccs3)nc3ccccc23)c1 [Compound 358, (2,5-Dimethoxybenzyl)-(2-thiopenyl-2-ylquinazolino-4-yl)-amine]",AMPK activity (degree of phosphorylation of serine-79 and threonine-172),AMPK,0.8
"COc1cc(OC)c(CNc2nc(-c3cccs3)nc3ccccc23)c(OC)c1 [Compound 359, (2-Thiopenyl-2-ylquinazolino-4-yl)-(2,4,6-trimethoxybenzyl)-amine]",AMPK activity (degree of phosphorylation of serine-79 and threonine-172),AMPK,0.9
"COc1cc(CNc2nc(C(OC)c3ccccc3)nc3ccccc23)cc(OC)c1 (stereo not drawn) [Compound 365, (3,5-Dimethoxybenzyl)-[2-(methoxyphenylmethyl)-quinazolino-4-yl]-amine]",AMPK activity (degree of phosphorylation of serine-79 and threonine-172),AMPK,1.1
"COc1ccc(CNc2nc(C(OC)c3ccccc3)nc3ccccc23)cc1OC (stereo not drawn) [Compound 366, (3,4-Dimethoxybenzyl)-[2-(methoxyphenylmethyl)-quinazolino-4-yl]-amine]",AMPK activity (degree of phosphorylation of serine-79 and threonine-172),AMPK,1.6
"COc1cc(CNc2nc(C(OC)c3ccccc3)nc3ccccc23)cc(OC)c1OC (stereo not drawn) [Compound 367, [2-(Methoxyphenylmethyl)-quinazolino-4-yl]-(3,4,5-trimethoxybenzyl)-amine]",AMPK activity (degree of phosphorylation of serine-79 and threonine-172),AMPK,2.2
"c1ccc2c(NCc3ccc4c(c3)OCO4)nc(C3CC3)nc2c1 [Compound 385, Benzo[1,3]dioxol-5-ylmethyl-(2-cyclopropylquinazolino-4-yl)-amine]",AMPK activity (degree of phosphorylation of serine-79 and threonine-172),AMPK,2.8
"COc1cccc(CNc2nc(C3CC3)nc3ccccc23)c1OC [Compound 386, (2-Cyclopropylquinazolino-4-yl)-(2,3-dimethoxybenzyl)-amine]",AMPK activity (degree of phosphorylation of serine-79 and threonine-172),AMPK,1.3
"CCCc1nc(NCc2ccccc2OC)c2ccccc2n1 [Compound 393, (2-Methoxybenzyl)-(2-propylquinazolino-4-yl)-amine]",AMPK activity (degree of phosphorylation of serine-79 and threonine-172),AMPK,1.0
"CCCc1nc(NCc2cc(OC)c(OC)c(OC)c2)c2ccccc2n1 [Compound 400, (2-Propylquinazolino-4-yl)-(3,4,5-trimethoxybenzyl)-amine]",AMPK activity (degree of phosphorylation of serine-79 and threonine-172),AMPK,0.4
"CCCc1nc(NCc2ccc(OC)cc2OC)c2ccccc2n1 [Compound 401, (2,4-Dimethoxybenzyl)-(2-propylquinazolino-4-yl)-amine]",AMPK activity (degree of phosphorylation of serine-79 and threonine-172),AMPK,1.4
"CCCc1nc(NCc2cc(OC)ccc2OC)c2ccccc2n1 [Compound 402, (2,5-Dimethoxybenzyl)-(2-propylquinazolino-4-yl)-amine]",AMPK activity (degree of phosphorylation of serine-79 and threonine-172),AMPK,0.5
"CCCc1nc(NCc2c(OC)cc(OC)cc2OC)c2ccccc2n1 [Compound 403, (2-Propylquinazolino-4-yl)-(2,4,6-trimethoxybenzyl)-amine]",AMPK activity (degree of phosphorylation of serine-79 and threonine-172),AMPK,1.3
"COc1ccc(CNc2ncnc3ccccc23)cc1OC [Compound 410, (3,4-Dimethoxybenzyl)-quinazolino-4-ylamine]",AMPK activity (degree of phosphorylation of serine-79 and threonine-172),AMPK,1.1
"CC(C)c1nc(OCc2ccccc2)c2ccccc2n1 [Compound 415, 4-Benzyloxy-2-isopropylquinazoline]",AMPK activity (degree of phosphorylation of serine-79 and threonine-172),AMPK,1.1
"CC(C)c1nc(SCc2ccccc2)c2ccccc2n1 [Compound 416, 4-Benzylsulfanyl-2-isopropylquinazoline]",AMPK activity (degree of phosphorylation of serine-79 and threonine-172),AMPK,0.7
